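Assay format: 96-well plates, 48-hour exposure. Abbreviation: GI50, concentration required for 50% inhibition of growth. TGI: concentration producing complete growth inhibition.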
Experiments:
Assay in all cases: NCI anticancer screen, dose series, 48 h
DU-145 prostate = tested on: DU-145 prostate
786-0 renal = tested on: 786-0 renal
UO-31 renal = tested on: UO-31 renal
NCI/ADR-RES ovarian = tested on: NCI/ADR-RES ovarian
PC-3 prostate = tested on: PC-3 prostate
HOP-62 NSCLC = tested on: HOP-62 NSCLC
SK-MEL-2 melanoma = tested on: SK-MEL-2 melanoma
TK-10 renal = tested on: TK-10 renal
SF-268 CNS = tested on: SF-268 CNS
NCI-H522 lung = tested on: NCI-H522 lung
K-562 leukemia = tested on: K-562 leukemia
M14 melanoma = tested on: M14 melanoma
OVCAR-4 ovarian = tested on: OVCAR-4 ovarian
T-47D breast = tested on: T-47D breast
A498 renal = tested on: A498 renal
OVCAR-3 ovarian = tested on: OVCAR-3 ovarian
SNB-75 CNS = tested on: SNB-75 CNS
SN12C renal = tested on: SN12C renal
ACHN renal = tested on: ACHN renal
UACC-257 melanoma = tested on: UACC-257 melanoma
NCI-H226 lung = tested on: NCI-H226 lung
HT29 colon = tested on: HT29 colon
HCT-15 colon = tested on: HCT-15 colon
SNB-19 CNS = tested on: SNB-19 CNS
MOLT-4 leukemia = tested on: MOLT-4 leukemia
OVCAR-8 ovarian = tested on: OVCAR-8 ovarian
MDA-MB-435 = tested on: MDA-MB-435
NCI-H460 lung = tested on: NCI-H460 lung
U251 CNS = tested on: U251 CNS
CAKI-1 renal = tested on: CAKI-1 renal
RPMI-8226 leukemia = tested on: RPMI-8226 leukemia
HS 578T breast = tested on: HS 578T breast
OVCAR-5 ovarian = tested on: OVCAR-5 ovarian
MALME-3M melanoma = tested on: MALME-3M melanoma
COLO 205 colon = tested on: COLO 205 colon
RXF 393 renal = tested on: RXF 393 renal
MDA-MB-231 breast = tested on: MDA-MB-231 breast
LOX IMVI melanoma = tested on: LOX IMVI melanoma
SK-OV-3 ovarian = tested on: SK-OV-3 ovarian
SK-MEL-5 melanoma = tested on: SK-MEL-5 melanoma
SW-620 colon = tested on: SW-620 colon
A549 NSCLC = tested on: A549 NSCLC
HOP-92 NSCLC = tested on: HOP-92 NSCLC
MCF7 breast = tested on: MCF7 breast
SF-539 CNS = tested on: SF-539 CNS
UACC-62 melanoma = tested on: UACC-62 melanoma
CCRF-CEM leukemia = tested on: CCRF-CEM leukemia
KM12 colon = tested on: KM12 colon
SR leukemia = tested on: SR leukemia
BT-549 breast = tested on: BT-549 breast
HCT-116 colon = tested on: HCT-116 colon
IGROV1 ovarian = tested on: IGROV1 ovarian
SK-MEL-28 melanoma = tested on: SK-MEL-28 melanoma
EKVX NSCLC = tested on: EKVX NSCLC
SF-295 CNS = tested on: SF-295 CNS
NCI-H23 lung = tested on: NCI-H23 lung
HCC-2998 colon = tested on: HCC-2998 colon
HL-60(TB) leukemia = tested on: HL-60(TB) leukemia

## CN1CCN(c2nc(-c3cnc4ccccc4n3)cc3ccccc23)CC1
DU-145 prostate
  GI50: > 52.1 µM
  TGI: > 100 µM
786-0 renal
  GI50: 10.9 µM
  TGI: 24 µM
UO-31 renal
  GI50: 3.67 µM
  TGI: > 49.3 µM
NCI/ADR-RES ovarian
  GI50: 21.5 µM
  TGI: > 100 µM
PC-3 prostate
  GI50: 10.3 µM
  TGI: > 100 µM
HOP-62 NSCLC
  GI50: > 38.2 µM
  TGI: > 58.9 µM
SK-MEL-2 melanoma
  GI50: 30.8 µM
  TGI: > 54.7 µM
TK-10 renal
  GI50: > 41.8 µM
  TGI: > 62.7 µM
SF-268 CNS
  GI50: > 46.8 µM
  TGI: > 100 µM
NCI-H522 lung
  GI50: 18.1 µM
  TGI: > 56.8 µM
K-562 leukemia
  GI50: 2.3 µM
  TGI: 6.34 µM
M14 melanoma
  GI50: 1.88 µM
  TGI: 3.65 µM
OVCAR-4 ovarian
  GI50: > 43.8 µM
  TGI: > 91.1 µM
T-47D breast
  GI50: 12.4 µM
  TGI: 31.2 µM
A498 renal
  GI50: > 68.4 µM
  TGI: > 100 µM
OVCAR-3 ovarian
  GI50: 18.8 µM
  TGI: > 100 µM
SNB-75 CNS
  GI50: 16.7 µM
  TGI: > 88.6 µM
SN12C renal
  GI50: 12.6 µM
  TGI: > 48.6 µM
ACHN renal
  GI50: 9.5 µM
  TGI: > 66.3 µM
UACC-257 melanoma
  GI50: 1.89 µM
  TGI: 3.91 µM
NCI-H226 lung
  GI50: 35.8 µM
  TGI: > 100 µM
HT29 colon
  GI50: 3.39 µM
  TGI: 11.7 µM
HCT-15 colon
  GI50: 2.95 µM
  TGI: 9.19 µM
SNB-19 CNS
  GI50: > 53.7 µM
  TGI: > 100 µM
MOLT-4 leukemia
  GI50: 4.7 µM
  TGI: > 48.9 µM
OVCAR-8 ovarian
  GI50: 10.3 µM
  TGI: > 100 µM
MDA-MB-435
  GI50: 3.53 µM
  TGI: 12.7 µM
NCI-H460 lung
  GI50: 3.67 µM
  TGI: 13.1 µM
U251 CNS
  GI50: 8 µM
  TGI: > 48.4 µM
CAKI-1 renal
  GI50: 9.79 µM
  TGI: > 100 µM
RPMI-8226 leukemia
  GI50: 3.04 µM
  TGI: 13 µM
HS 578T breast
  GI50: 15.1 µM
  TGI: > 67.6 µM
OVCAR-5 ovarian
  GI50: > 36 µM
  TGI: > 72.9 µM
MALME-3M melanoma
  GI50: 4.45 µM
  TGI: 9.15 µM
COLO 205 colon
  GI50: 1.84 µM
  TGI: 3.67 µM
RXF 393 renal
  GI50: 4.97 µM
  TGI: 15.1 µM
MDA-MB-231 breast
  GI50: 6.47 µM
  TGI: > 50.3 µM
LOX IMVI melanoma
  GI50: 2.82 µM
  TGI: 7.66 µM
SK-OV-3 ovarian
  GI50: > 44.8 µM
  TGI: > 72 µM
SK-MEL-5 melanoma
  GI50: 7.39 µM
  TGI: > 50.4 µM
SW-620 colon
  GI50: 2.22 µM
  TGI: 5.11 µM
A549 NSCLC
  GI50: > 32.1 µM
  TGI: > 100 µM
HOP-92 NSCLC
  GI50: 2.76 µM
  TGI: > 69.7 µM
MCF7 breast
  GI50: 6.61 µM
  TGI: 20.7 µM
SF-539 CNS
  GI50: 8 µM
  TGI: > 51.2 µM
UACC-62 melanoma
  GI50: 2.84 µM
  TGI: 8.23 µM
CCRF-CEM leukemia
  GI50: 9.44 µM
  TGI: > 90.3 µM
KM12 colon
  GI50: > 64.6 µM
  TGI: > 100 µM
SR leukemia
  GI50: 2.02 µM
  TGI: 6.04 µM
BT-549 breast
  GI50: 39.6 µM
  TGI: > 79.3 µM
HCT-116 colon
  GI50: 3.51 µM
  TGI: 8.19 µM
IGROV1 ovarian
  GI50: 7.96 µM
  TGI: > 55.2 µM
SK-MEL-28 melanoma
  GI50: 2.29 µM
  TGI: 5.27 µM
EKVX NSCLC
  GI50: > 56.8 µM
  TGI: > 100 µM
SF-295 CNS
  GI50: 7.88 µM
  TGI: 20.3 µM
NCI-H23 lung
  GI50: 30.7 µM
  TGI: > 100 µM
HCC-2998 colon
  GI50: 2.17 µM
  TGI: 5.11 µM
HL-60(TB) leukemia
  GI50: 4.21 µM
  TGI: 9.46 µM

— PubChem BioAssay (NCI)
